Values of other authors in patent US20240239832A1, “A PROCESS FOR THE PREPARATION OF N4-HYDROXYCYTIDINE AND ITS DERIVATIVES” (priority 2021, published 2024).

Columns and labels:
[1] = test system: Venezuelan equine encephalitis virus (VEEV) TC-83; details: read-out: EC50, reduction of viral titers of VEEV TC-83
[2] = test system: SARS-CoV-2; details: Vero cells; read-out: IC50, inhibition of replication of SARS-CoV-2
[3] = test system: acute respiratory syndrome coronavirus (SARS-CoV); details: read-out: IC50, inhibition of replication of SARS-CoV
[4] = test system: remdesivir-resistant strains of the model CoV mouse hepatitis virus (MHV); details: infected DBT cells
[5] = test system: Middle East respiratory syndrome coronavirus (MERS-CoV); details: read-out: IC50, inhibition of replication of MERS-CoV

**Q.** With `O=c1nc(NO)ccn1[C@@H]1O[C@H](CO)[C@@H](O)[C@H]1O` [EIDD-1931, 1-(3,4-dihydroxy-5-(hydroxymethyl)tetrahydrofuran-2-yl)-4-(hydroxyamino)pyrimidin-2(1H)-one] as the compound, how does the EC50 [1] read?
**A.** The EC50 was 426 nM.

**Q.** What about the IC50 [2] of the same compound?
**A.** The IC50 was 300 nM.

**Q.** What about the IC50 [3] of the same compound?
**A.** The IC50 was 100 nM.

**Q.** What about the “reduction of viral titers of remdesivir-resistant MHV” value [4] of the same compound?
**A.** Its value is “reduces viral titers”.

**Q.** And the IC50 [5]?
**A.** Its IC50 is 150 nM.
